test system: Aβ42; assay: Cellular assay for inhibition of Aβ1-42 production (H4 APP751 SWE clone 8.20); assay type: cell-based; settings: 19 h, H4 APP751 SWE clone 8.20 cells, 19 h incubation; read-out: Activity Rating (Aβ42 cellular IC50), class symbol
Description: Cellular Assays for Inhibition of Aβ1-40 and Aβ1-42 Production
H4 cells stably transfected with APP751 containing the Swedish mutation (H4 APP751 SWE clone 8.20, developed at BMS) were maintained in log phase through twice weekly passage at a 1:20 split. […] Following incubation for 19 h in 5% CO2 at 37° C., plates were briefly centrifuged (1000 rpm, 5 min). A 10 μl aliquot from each well was transferred to a second assay plate (Costar 3709) for Aβ40 measurements. Antibody cocktails were freshly prepared by dilution into 40 mM Tris-HCl (pH 7.4) with 0.2% BSA and added to assay plates. For Aβ42 measurements, antibodies specific for the Aβ42 neoepitope (565, developed at BMS; conjugated to the Wallac reagent (Perkin Elmer)) and the N-terminal sequence of Aβ peptide (26D6, developed at SIBIA; conjugated to APC (Perkin Elmer)) were mixed and 20 μl of the mixture was added to each well of the incubated cell plate yielding a final concentration of 0.8 ng/well 565 and 75 ng/well 26D6. For the Aβ40 measurements, antibodies specific for the Aβ40 neoepitope (TSD, developed at BMS; conjugated to the Wallac reagent (Perkin Elmer)) and 26D6 as described above were mixed and 20 μl of the mixture was added to the 10 μl aliquots which had been removed previously from the cell plate yielding a final concentration of 1.6 ng/well TSD and 17.5 ng/well 26D6. Assay plates containing antibodies were sealed with aluminum foil and incubated overnight at 4° C. Signal was determined using a Viewlux counter (Perkin Elmer) and IC50 values determined using curve fitting in CurveMaster (Excel Fit based).

| IC50 [µM] | Compound |
| --- | --- |
| 0.1 to 1 | CN1C/C=C\COc2cc(ccc2C#N)Nc2nc3c(c1n2)CCC3c1ccc(F)cc1F (stereo not drawn) [Example 28B, (11Z)-7-cyano-18-(2,4-difluorophenyl)-14-methyl-10,13,14,16,17,18-hexahydro-15,2-(azeno)-8,4-(metheno)cyclopenta[h][1,6,10,12]oxatriazacycloheptadecine] |
| 0.01 to 0.1 | Cc1ncnn1-c1ccc2cc1OCCCCNc1nc(nc3c1CCC3c1ccccc1)N2 (stereo not drawn) [Example 47B, 7-(5-methyl-1H-1,2,4-triazol-1-yl)-18-phenyl-10,11,12,13,14,16,17,18-octahydro-15,2-(azeno)-8,4-(metheno)cyclopenta[h][1,6,10,12]oxatriazacycloheptadecine] |
| 0.01 to 0.1 | N#Cc1ccc2cc1OCCCNc1nc(nc3c1CCC3c1ccc(F)cc1F)N2 (stereo not drawn) [Example 33A, 7-cyano-17-(2,4-difluorophenyl)-11,12,13,15,16,17-hexahydro-10H-14,2-(azeno)-8,4-(metheno)cyclopenta[g][1,5,9,14]oxatriazacyclohexadecine] |
| < 0.01 | CN1CCCOc2cc(ccc2-n2cnc(Cl)c2)Nc2nc3c(c1n2)CCC3c1ccc(F)cc1F (stereo not drawn) [Example 20A, 7-(4-chloro-1H-imidazol-1-yl)-17-(2,4-difluorophenyl)-13-methyl-11,12,13,15,16,17-hexahydro-10H-14,2-(azeno)-8,4-(metheno)cyclopenta[g][1,5,9,11]oxatriazacyclohexadecine] |
| < 0.01 | Clc1cn(-c2ccc3cc2OCCOCCNc2nc(nc4c2CCC4c2ccccc2)N3)cn1 (stereo not drawn) [Example 8A, 7-(4-chloro-1H-imidazol-1-yl)-19-phenyl-10,11,13,14,15,17,18,19-octahydro-16,2-(azeno)-8,4-(metheno)cyclopenta[i][1,4,7,11,13]dioxatriazacyclooctadecine] |
| 0.1 to 1 | CC1C/C=C/COc2cc(ccc2-n2cnc(Cl)c2)Nc2nc(c3c(n2)C(c2ccccc2)CC3)N1 (stereo not drawn) [Example 7B, (11E)-7-(4-chloro-1H-imidazol-1-yl)-14-methyl-19-phenyl-3,10,13,14,15,17,18,19-octahydro-2,16-(azeno)-8,4-(metheno)cyclopenta[j][1,7,9,13]oxatriazacyclooctadecine] |
| < 0.01 | CN1C/C=C\COc2cc(ccc2-n2cnc(Cl)c2)Nc2nc3c(c1n2)CCC3c1ccc(F)cc1F (stereo not drawn) [Example 18A, (11Z)-7-(4-chloro-1H-imidazol-1-yl)-18-(2,4-difluorophenyl)-14-methyl-10,13,14,16,17,18-hexahydro-15,2-(azeno)-8,4-(metheno)cyclopenta[h][1,6,10,12]oxatriazacycloheptadecine] |

same assay, conditions: 19 h, H4 APP751 SWE clone 8.20 cells, 19 h incubation; unit inferred; read-out: Activity Rating (Aβ42 cellular IC50), numeric value

| IC50 [µM] | Compound |
| --- | --- |
| 0.022 | Cc1ncn(-c2ccc3cc2OCCCCCc2nc(nc4c2CCC4c2ccccc2)N3)n1 (stereo not drawn) [Example 62B, 7-(3-methyl-1H-1,2,4-triazol-1-yl)-18-phenyl-10,11,12,13,14,16,17,18-octahydro-15,2-(azeno)-8,4-(metheno)cyclopenta[h][1,10,12]oxadiazacycloheptadecine] |
| 0.026 | CN1CCCCOc2cc(ccc2-n2cnc(Cl)c2)Nc2nc3c(c1n2)CCC3c1ccccc1 (stereo not drawn) [Example 13B, 7-(4-chloro-1H-imidazol-1-yl)-14-methyl-18-phenyl-10,11,12,13,14,16,17,18-octahydro-15,2-(azeno)-8,4-(metheno)cyclopenta[h][1,6,10,12]oxatriazacycloheptadecine] |
| 0.037 | N#Cc1ccc2cc1OCCCNc1nc(nc3c1CCC3c1ccc(F)cc1F)N2 (stereo not drawn) [Example 33B, 7-cyano-17-(2,4-difluorophenyl)-11,12,13,15,16,17-hexahydro-10H-14,2-(azeno)-8,4-(metheno)cyclopenta[g][1,5,9,14]oxatriazacyclohexadecine] |
| 0.025 | Cc1ncn(-c2ccc3cc2OCCCNc2nc(nc4c2CCC4c2ccc(F)cc2F)N3)n1 (stereo not drawn) [Example 63B, 17-(2,4-difluorophenyl)-7-(3-methyl-1H-1,2,4-triazol-1-yl)-11,12,13,15,16,17-hexahydro-10H-14,2-(azeno)-8,4-(metheno)cyclopenta[g][1,5,9,11]oxatriazacyclohexadecine] |
| 0.013 | CN1C/C=C\COc2cc(ccc2C#N)Nc2nc3c(c1n2)CCC3c1ccc(F)cc1F (stereo not drawn) [Example 28A, (11Z)-7-cyano-18-(2,4-difluorophenyl)-14-methyl-10,13,14,16,17,18-hexahydro-15,2-(azeno)-8,4-(metheno)cyclopenta[h][1,6,10,12]oxatriazacycloheptadecine] |
| 0.0056 | Cc1ncnn1-c1ccc2cc1OCCCCNc1nc(nc3c1CCC3c1ccccc1)N2 (stereo not drawn) [Example 47A, 7-(5-methyl-1H-1,2,4-triazol-1-yl)-18-phenyl-10,11,12,13,14,16,17,18-octahydro-15,2-(azeno)-8,4-(metheno)cyclopenta[h][1,6,10,12]oxatriazacycloheptadecine] |

same assay, conditions: H4 APP751 SWE clone 8.20 cells, 19 h incubation; read-out: Activity Rating (Aβ42 cellular IC50), class symbol

| IC50 [µM] | Compound |
| --- | --- |
| 0.01 to 0.1 | CN1CC=CCOc2cc(ccc2C#N)Nc2nc3c(c1n2)CCC3c1ccccc1 (stereo not drawn) [Example 30B, (11E)-7-cyano-14-methyl-18-phenyl-10,13,14,16,17,18-hexahydro-15,2-(azeno)-8,4-(metheno)cyclopenta[h][1,6,10,12]oxatriazacycloheptadecine] |
| 0.01 to 0.1 | Cc1ncn(-c2ccc3cc2OCC=CCNc2nc(nc4c2CCC4c2ccccc2)N3)n1 (stereo not drawn) [Example 39B, (11Z)-7-(3-methyl-1H-1,2,4-triazol-1-yl)-18-phenyl-10,13,14,16,17,18-hexahydro-15,2-(azeno)-8,4-(metheno)cyclopenta[h][1,6,10,12]oxatriazacycloheptadecine] |
| 0.01 to 0.1 | Cc1ncn(-c2ccc3cc2OC/C=C/CNc2nc(nc4c2CCC4c2ccc(F)cc2F)N3)n1 (stereo not drawn) [Example 52B, (11E)-18-(2,4-difluorophenyl)-7-(3-methyl-1H-1,2,4-triazol-1-yl)-10,13,14,16,17,18-hexahydro-15,2-(azeno)-8,4-(metheno)cyclopenta[h][1,6,10,12]oxatriazacycloheptadecine] |
| 0.01 to 0.1 | Clc1cn(-c2ccc3cc2OCCCCNc2nc(nc4c2CCC4c2ccccc2)N3)cn1 (stereo not drawn) [Example 12B, 7-(4-chloro-1H-imidazol-1-yl)-18-phenyl-10,11,12,13,14,16,17,18-octahydro-15,2-(azeno)-8,4-(metheno)cyclopenta[h][1,6,10,12]oxatriazacycloheptadecine] |
| < 0.01 | (11E)-7-(3-methyl-1H-1,2,4-triazol-1-yl)-18-phenyl-10,13,14,16,17,18-hexahydro-15,2-(azeno)-8,4-(metheno)cyclopenta[h][1,6,10,12]oxatriazacycloheptadecine [Example 40A] |
| < 0.01 | N#Cc1ccc2cc1OCC=CCNc1nc(nc3c1CCC3c1ccc(F)cc1F)N2 (stereo not drawn) [Example 24A, (11Z)-7-cyano-18-(2,4-difluorophenyl)-10,13,14,16,17,18-hexahydro-15,2-(azeno)-8,4-(metheno)cyclopenta[h][1,6,10,12]oxatriazacycloheptadecine] |
| < 0.01 | Clc1cn(-c2ccc3cc2OC/C=C\CCc2nc(nc4c2CCC4c2ccccc2)N3)cn1 (single isomer, unassigned) [Example 16A, (11Z)-7-(4-chloro-1H-imidazol-1-yl)-18-phenyl-10,13,14,16,17,18-hexahydro-15,2-(azeno)-8,4-(metheno)cyclopenta[h][1,10,12]oxadiazacycloheptadecine] |
| < 0.01 | Cc1ncn(-c2ccc3cc2OCC(O)CCNc2nc(nc4c2CCC4c2ccc(F)cc2)N3)n1 (single isomer, unassigned) [Example 72C, 18-(4-fluorophenyl)-7-(3-methyl-1H-1,2,4-triazol-1-yl)-10,11,12,13,14,16,17,18-octahydro-15,2-(azeno)-8,4-(metheno)cyclopenta[h][1,6,10,12]oxatriazacycloheptadecin-11(3H)-ol] |
| 0.1 to 1 | CN1CC=CCOc2cc(ccc2C#N)Nc2nc3c(c1n2)CCC3c1ccccc1 (stereo not drawn) [Example 29B, (11Z)-7-cyano-14-methyl-18-phenyl-10,13,14,16,17,18-hexahydro-15,2-(azeno)-8,4-(metheno)cyclopenta[h][1,6,10,12]oxatriazacycloheptadecine] |
| 0.1 to 1 | Cc1ncn(-c2ccc3cc2OCC=CCNc2nc(nc4c2CCC4c2ccc(F)cc2)N3)n1 (stereo not drawn) [Example 46B, (11E)-18-(4-fluorophenyl)-7-(3-methyl-1H-1,2,4-triazol-1-yl)-10,13,14,16,17,18-hexahydro-15,2-(azeno)-8,4-(metheno)cyclopenta[h][1,6,10,12]oxatriazacycloheptadecine] |

same assay, conditions: H4 APP751 SWE clone 8.20 cells, 19 h incubation; unit inferred; read-out: Activity Rating (Aβ42 cellular IC50), numeric value

| IC50 [µM] | Compound |
| --- | --- |
| 0.0056 | Clc1cn(-c2ccc3cc2OCC=CCCc2nc(nc4c2CCC4c2ccccc2)N3)cn1 (stereo not drawn) [Example 17A, (11E)-7-(4-chloro-1H-imidazol-1-yl)-18-phenyl-10,13,14,16,17,18-hexahydro-15,2-(azeno)-8,4-(metheno)cyclopenta[h][1,10,12]oxadiazacycloheptadecine] |
